Structures can show the parent of a compound that is named as a salt.
Columns and labels:
[1] = system: Mefv^V726/V726 mouse model; assay: Familial Mediterranean Fever Mefv V726/V726 mouse model; assay type: in vivo; conditions: for weight (weight loss / weight gain): diet containing dimethyl fumarate (100 mg/kg/day; 0.1% DMF) for 6 weeks; for GSDMD-N (GsdmD-p30) formation in spleen: immunoblot
Protocol: FIGS. 15A-E. Fumarate alleviates FMF. (A-D) Weight gain (A), spleen weight (B), ELISA of serum IL-1B and immunoblot of spleen GSDMD (D) liver H&E (E) from Mefv726/726 receiving vehicle diet or a diet containing dimethyl fumarate (100 mg/kg/day) for 6 weeks. Data points indicative of individual mice. *, P<0.05 ***, P<0.001 (t-test or Two-way ANOVA). Error bars show means±SEM.
All animal experiments were approved by the Institutional Animal Care Use Committees at the University of Massachusetts Medical School. Animal were kept in specific pathogen free (SPF) environment. Male and female C57/BL6 and Gsdmd−/− mice were used. Gsdmd−/− mice were generated as previously described (22). MefvV726/V726 mice were a gift from Prof. Daniel Kastner (23). Sample sizes used are in line with other similar published studies. All animals were used at age 8-12 weeks.
DMF embedded mouse diet was formulated by Lab Diets®. DMF was added to a base diet of laboratory lab diet 5001 at a dose 100 mg/kg/day of consumption. Mice received the control base diet or the DMF containing diet for 6 weeks.

[2] = system: LPS septic shock in WT mice; assay: LPS septic shock model; assay type: in vivo, mouse
Protocol: FIGS. 1A-L. Fumarate inhibits pyroptosis. Bone marrow-derived macrophages (BMDMs) were treated as indicated and LDH, IL-1β or TNF-α measured by ELISA (A-C), GSDMD/β-actin by immunoblotting (D) or permeabilization of cells to SYTOX orange (E-F). GSDMD oligomerization in native and reduced cell lysates treated as above (G). Timecourse of permeabilization to SYTOX orange or GSDMD-N formation in cells treated as indicated (H-I). Survival rates of WT mice after 50 mg/kg of LPS (n−10) or LPS+fumarate (n=9) (J). Levels of IL-1β or TNF-α from serum of WT mice at 5 hours post-intraperitoneal injection with 5 mg/kg LPS (n=6) or control PBS (n=3) (K, L). A, B, C, I and are pooled from three independent experiments. D, E, F, G, H and I are representative from three independent experiments. J, K, L data points indicate individual mice. *, P<0.05, **, P<0.01; ***, P<0.001; ****, P<0.0001) (J, Mantel Cox survival analysis; A-C, K Two-way ANOVA). Error bars show means±SEM.
FIGS. 8A-B. Fumarate inhibits pyroptosis in vivo. (A-B) LC/MS Fumarate quantification in splenocytes (A) and IL-1 ELISA analysis (B) in serum from WT C57/BL6 mice administered FHIN2 (50 mg/kg) by IP injection followed by LPS (10 mg/kg) by IP injection for 5 hours. Data points indicative of individual mice. **, P<0.01 (Two-way ANOVA). Error bars show means±SEM.
Conditioned media or serum was collected as indicated and IL-1β or TNF-α, were quantified by sandwich ELISA (R&D Systems).
Mice aged 8-12 weeks were administered LPS 5 mg/kg by intraperitoneal injection. Serum was collected after 5 h for ELISA analysis. For survival studies, mice were administered LPS 50 mg/kg intraperitoneally and monitored every 12 h for up to 96 h.

[3] = system: GSDMD-deficient BMDMs (GSDME); assay: Cell death in GSDMD-deficient BMDMs; assay type: cell-based, mouse
From the text: FIGS. 3A-J. Fumarate targets GSDMD and Gasdermin E (GSDME). Kinetic cell death of WT and Gsdmd-BMDMs (A) or WT/GSDMD^−/− THP1 cells (B) treated as indicated. LDH and IL-1β release from WT and Gsdmd^−/− BMDMs (C-D). Immunoblot of GSDMD and GSDME in native and reduced cell lysates from BMDMs (E). Immunoblot of GSDME in streptavidin pulldown from clicked lysates (F). Representative Mass spectra of succinated GSDME (G-H). Immunoblot analysis of GSDMD and GSDME from WT and Gsdmcd^−/− BMDMs (I). A, B representative of three independent experiments. C, D, I pooled data from three independent experiments. E, F, J representative images from 3 independent experiments. ***, P<0.0001, […] (Two-way ANOVA). Error bars show means±SEM.
FIGS. 13A-B. Fumarate inhibits GSDMD and GSDME comparably. (A) Kinetic cell death data of WT (left-panel) and GSDMD−/− (right-panel) primary BMDMs with LPS for 2 hours, DMSO (vehicle) or fumarate (0-50 μM) followed by nigericin (10 μM) for 6 hours. (B) Immunoblot analysis of GSDMD, GSDME and -actin in cell lysates from WT and GSDMD−/− BMDMs treated as in (A).
Cells were plated, treated and incubated in phenol red free medium. Following treatment medium was collected and assessed for LDH release using the CytoTox96 non-radioactive cytotoxicity assay (Promega) as per manufacturer's instructions. Kinetic cell death assays were performed using SytoxOrange and the Biotek Cytation5.

[4] = diet containing dimethyl fumarate for 6 weeks
[5] = diet containing dimethyl fumarate for 6 weeks, listed as DMF

COC(=O)/C=C/C(=O)OC [Fumarate, Dimethyl fumarate]
weight (weight loss / weight gain) [1]: alleviated | weight (weight loss / weight gain) ([1]; listed as DMF): increased weight | IL-1β secretion (serum) [1, 4]: alleviated | spleen size (splenomegaly) [1, 4]: alleviated | liver pathology ([1]; diet containing dimethyl fumarate for 6 weeks, H&E): alleviated | GSDMD-N (GsdmD-p30) formation in spleen [1, 4]: alleviated | GSDMD-N (GsdmD-p30) formation in spleen [1, 5]: reduced levels | spleen size (splenomegaly) [1, 5]: reduced spleen size | fibrosis of liver and lung ([1]; diet including 0.1% DMF): reduction in fibrosis | runting ([1]; diet including 0.1% DMF): rescue of runting | serum IL-1β levels ([2]; 5 hours after ip LPS 5 mg/kg): reduced | serum TNF-α levels ([2]; 5 hours after ip LPS 5 mg/kg): not | survival ([2]; lethal dose LPS 50 mg/kg, single dose of fumarate): increased survival | cell death (GSDMD-independent, GSDME-dependent) ([3]; GSDMD-deficient BMDMs, kinetic): inhibited cell death | GSDME processing / generation of GSDME-N ([3]; GSDMD-deficient cells, immunoblot): blocked | inhibition of GSDMD-driven versus GSDME-driven cell death ([3]; WT and GSDMD-/- BMDMs, fumarate 0-50 μM, nigericin 6 hours): comparably

Reference: patent US20230233500A1, “Gasdermin D (GSDMD) Succination for the Treatment of Inflammatory Disease” (University of Massachusetts, priority 2020, published 2023)
